From patent publication US9487749B2 (priority 2009, dated 2016)
Where “and” joins values, the source holds several entries; their conditions need not be identical. Equal entries are not always repeated. Entries after “also recorded” stand apart in the source; their conditions may differ.

What was measured:
[1] = system: Lactobacillus acidophilus; assay: Lactobacillus acidophilus milk growth in simulated gastric acid supplemented with MSM; type: cell-based; details: for Log Growth of L. acidophilus in milk average / Log Growth of L. acidophilus in milk in duplicate: simulated gastric acid pH 1.2
[2] = system: White Labs Edinburgh Ale yeast; assay: Fermentation efficiency in production of beer (Scotch Ale) with 0.5% MSM; type: cell-based; details: for F.G. (Adjusted for Alc and Temp): 0.5% MSM fermentor
Text: This positive impact includes such organisms as fungi, yeast, and bacteria. Yeast cultures are involved in the production of beer during the fermentation process to produce ethanol and carbon dioxide. […] Wort is the liquid extracted from the mashing process during the brewing of beer or whisky. Wort contains the sugars that are fermented by the brewing yeast to produce alcohol. […] This Procedure is detailed below. […] (1) glass jugs, airlocks and funnel were thoroughly cleaned and then rinsed with beer sanitizer; (2) 1000 mLs of water was boiled then 100 grams of DME was added; (3) sample was boiled for 10 minutes; […] The Treatment Starter batch was then placed in a sanitized 64 ounce glass jug using to which 1-vial of White Labs Edinburgh Ale yeast was added. The airlock was applied and the entire vessel was placed in a dark room at room temperature for 48 hours. […] (1) glass jugs, airlocks and funnel were thoroughly cleaned and then rinsed with beer sanitizer; (2) 1000 mLs of water was boiled then 100 grams of DME was added; (3) sample was boiled for 10 minutes; (4) sample was removed from heat; and (5) solution was allowed to cool to 72° F. The Treatment Starter batch was then placed in a sanitized 64 ounce glass jug using to which 1-vial of White Labs Edinburgh Ale yeast was added. The airlock was applied and the entire vessel was placed in a dark room at room temperature for 48 hours. […] Materials to prepare the mash included the following: 18 lb of American 2-Row base grain; 3 lb of Crystal Malt 40 L specialty grain; 1 lb […] specialty grain; and water. A mash tun (a vessel used in the mashing process to convert the starches in crushed grains into sugars for fermentation) and Brew kettle were cleaned with powdered brewers wash and rinsed thoroughly. The mash tun was then sanitized (San Star Brewing Sanitizer). The following grains were crushed and milled for mashing: 18 lb of American 2-Row base grain; 3 lb of Crystal Malt 40 L specialty grain; and 1 lb […] specialty grain. […] The crushed grains were then added and the solution was mixed thoroughly. The lid was attached and the solution allowed to mash for 60 minutes. […] Strike water was preheated to 168° F., added to the mash tun and mix thoroughly with grain. The mixture was allowed to incubate for 10 minutes. […] After preparing the mash, the brewing process was started. […] Equipment was cleaned thoroughly with PBW. The wort chiller and filtered air stone were sanitized with brewing sanitizer (San Star Brewing Sanitizer). […] At 30 minutes of boil, a second aliquot (0.5 ounces) of Cascade hops was added. At 40 minutes of boil, third aliquot (0.5 ounces) of Cascade hops was added as well as 2 teaspoons of […] Moss. At 50 minutes of boil, a fourth aliquot (0.5 ounces) of Cascade hops was added. […] Each fermentor was Brix tested every 24 hours for 21 days. Both fermentors were aerated for 25 minutes with sanitized filtered air stone. MSM infused yeast was pitched into treatment fermentor vessel while unaltered yeast was pitched into control fermentor vessel. Blow-off tubes were attached to both fermentors and fermentation was allowed to proceed for 21 days.

[3] = system: Escherichia coli (ATCC strain 8739); assay: E. coli growth profile in sterile and non-sterile MSM in TSB or saline (USP <51> AET basis, MacConkey agar streak); details: for Growth profile of E. coli: 5-16% MSM
Protocol: The USP <51> AET is a compendial (United States Pharmacopeia) antimicrobial effectiveness test method for determining if a preservative is effective based upon a verified and validated methodology.
All tubes except the negative controls were spiked with 250 μl of a 1.2×10^8 culture, which yields an initial E. coli population density of 1.2×10^6/mL. Tubes were incubated at 25° C.

Bacillus coagulans = Bacillus coagulans growth in simulated gastric acid supplemented with MSM; type: cell-based; details: simulated gastric acid pH 1.2

SMILES: CS(C)(=O)=O [MSM, Methylsulfonylmethane]
- increase in log growth from previous time point ([1]; 5.0% MSM, 24 hours): 0.23 logs
- decrease in log growth from previous time point ([1]; 5.0% MSM, Hour 48): 0.33 logs
- Log Growth of L. acidophilus in milk average ([1]; 5% MSM, hour 0): 0.41 log
- Log Growth of L. acidophilus in milk average ([1]; 5% MSM, hour 3): 0.41 log
- Log Growth of L. acidophilus in milk in duplicate ([1]; 5% MSM, hour 6): 0.82 log and 1 log
- Log Growth of L. acidophilus in milk average ([1]; 5% MSM, hour 6): 0.91 log
- Log Growth of L. acidophilus in milk in duplicate ([1]; 5% MSM, hour 9): 0.52 log
- Log Growth of L. acidophilus in milk average ([1]; 5% MSM, hour 9): 0.52 log
- Log Growth of L. acidophilus in milk average ([1]; 5% MSM, hour 12): 1.10 log
- Log Growth of L. acidophilus in milk in duplicate ([1]; 5% MSM, hour 15): 1.43 log
- Log Growth of L. acidophilus in milk average ([1]; 5% MSM, hour 15): 1.43 log
- Log Growth of L. acidophilus in milk in duplicate ([1]; 5% MSM, hour 24): 1.67 log and 1.64 log
- Log Growth of L. acidophilus in milk average ([1]; 5% MSM, hour 24): 1.66 log
- Log Growth of L. acidophilus in milk in duplicate ([1]; 5% MSM, hour 48): 1.22 log and 1.43 log
- Log Growth of L. acidophilus in milk average ([1]; 5% MSM, hour 48): 1.33 log
- log growth higher than control ([1]; 5.0% MSM, listed as order: hour 15, maximum vs control maximum): 0.45 logs and 0.68 logs
- increase in log growth from previous time point ([1]; […] MSM (so in the source), 24 hours): 0.30 logs
- decrease in log growth from previous time point ([1]; […] MSM, 24 hours): 0.11 logs
- decrease in log growth from previous time point ([1]; […] MSM, Hour 48): 0.38 logs
- Log Growth of L. acidophilus in milk in duplicate ([1]; […] MSM, hour 0): 0 log
- Log Growth of L. acidophilus in milk average ([1]; […] MSM, hour 0): 0 log
- Log Growth of L. acidophilus in milk average ([1]; […] MSM, hour 9): 0.41 log
- increase in logs from hour 15 to 24 ([1]; […] and 5.0% MSM): ≥ 0.24 logs
- F.G. (Adjusted for Alc and Temp) ([2]; Day 1): 1.026
- F.G. (Adjusted for Alc and Temp) ([2]; Day 2): 1.018
- F.G. (Adjusted for Alc and Temp) ([2]; Day 3): 1.016
- F.G. (Adjusted for Alc and Temp) ([2]; Day 4): 1.016
- F.G. (Adjusted for Alc and Temp) ([2]; Day 5): 1.015
- F.G. (Adjusted for Alc and Temp) ([2]; Day 6): 1.015
- F.G. (Adjusted for Alc and Temp) ([2]; Day 7): 1.015
- F.G. (Adjusted for Alc and Temp) ([2]; Day 8): 1.015
- F.G. (Adjusted for Alc and Temp) ([2]; Day 9): 1.015
- F.G. (Adjusted for Alc and Temp) ([2]; Day 10): 1.015
- F.G. (Adjusted for Alc and Temp) ([2]; Day 11): 1.015
- F.G. (Adjusted for Alc and Temp) ([2]; Day 12): 1.015
- F.G. (Adjusted for Alc and Temp) ([2]; Day 13): 1.015
- F.G. (Adjusted for Alc and Temp) ([2]; Day 14): 1.015
- F.G. (Adjusted for Alc and Temp) ([2]; Day 15): 1.015
- F.G. (Adjusted for Alc and Temp) ([2]; Day 16): 1.015
- F.G. (Adjusted for Alc and Temp) ([2]; Day 17): 1.015
- F.G. (Adjusted for Alc and Temp) ([2]; Day 18): 1.015
- F.G. (Adjusted for Alc and Temp) ([2]; Day 19): 1.015
- F.G. (Adjusted for Alc and Temp) ([2]; Day 20): 1.015
- F.G. (Adjusted for Alc and Temp) ([2]; Day 21): 1.015
- time to maximum fermentation ([2]; 0.5% MSM treatment batch): 5 days
- sooner time of completion ([2]; 0.5% MSM treatment batch vs control (6 days)): 17-25%
- time to activity ([2]; fermentor with 0.5% MSM): 3.5 h
- activity sooner than the control ([2]; fermentor with 0.5% MSM (3.5 hours compared to 9 hours)): 58%
- activity sooner than the control ([2]; yeast starter with 0.5% MSM (2 hours compared to 10 hours)): 80%
- visual signs of growth in culture tubes ([3]; 5-9% MSM in TSB/TSBA media, 24 hours): visible signs of growth
- visual signs of growth in culture tubes ([3]; 5-10% MSM in TSB/TSBA, 48 hours, 72 hours): signs of heavy growth
- visual signs of growth in culture tubes ([3]; 10-16% MSM in TSB/TSBA media, 24 hours): no signs of growth
- visual signs of growth in culture tubes ([3]; 11% MSM in TSB/TSBA, 48 hours, 72 hours): Apparent growth
- visual signs of growth in culture tubes ([3]; 12-15% MSM in TSB/TSBA, 48 hours, 72 hours): little to no observable signs of growth
- visual signs of growth in culture tubes ([3]; MSM in saline tubes, 24 hours): did not show any signs of growth
- Growth profile of E. coli ([3]; after 24 hours, NS (sterile saline added to non-sterile MSM)): Heavy; also recorded: Moderate
- Growth profile of E. coli ([3]; after 24 hours, NSA (saline + MSM, then sterilized)): Heavy; also recorded: Moderate
- Growth profile of E. coli ([3]; after 24 hours, TSB (sterile TSB added to non-sterile MSM)): Heavy and Moderate and Few
- Growth profile of E. coli ([3]; after 24 hours, TSBA (TSB + MSM, then sterilized)): Heavy and Moderate and Few
- Growth profile of E. coli ([3]; after 48 hours, NS): Heavy; also recorded: Moderate
- Growth profile of E. coli ([3]; after 48 hours, NSA): Heavy; also recorded: Moderate
- Growth profile of E. coli ([3]; after 48 hours, TSB): Heavy and Moderate and Few
- Growth profile of E. coli ([3]; after 48 hours, TSBA): Heavy and Moderate and Few
- Growth profile of E. coli ([3]; after 72 hours, NS): Heavy; also recorded: Moderate
- Growth profile of E. coli ([3]; after 72 hours, NSA): Heavy; also recorded: Moderate
- Growth profile of E. coli ([3]; after 72 hours, TSB): Heavy and Moderate and Few
- Growth profile of E. coli ([3]; after 72 hours, TSBA): Heavy and Moderate and Few
- Log Growth of Bacillus coagulans average (Bacillus coagulans; 5% MSM, hour 0): 0.26 log
- Log Growth of Bacillus coagulans in duplicate (Bacillus coagulans; 5% MSM, hour 3): 0 log
- Log Growth of Bacillus coagulans average (Bacillus coagulans; 5% MSM, hour 3): 0 log
- Log Growth of Bacillus coagulans in duplicate (Bacillus coagulans; 5% MSM, hour 6): 0 log
- Log Growth of Bacillus coagulans average (Bacillus coagulans; 5% MSM, hour 6): 0 log
- Log Growth of Bacillus coagulans in duplicate (Bacillus coagulans; 5% MSM, hour 9): 0 log
- Log Growth of Bacillus coagulans average (Bacillus coagulans; 5% MSM, hour 9): 0 log
- Log Growth of Bacillus coagulans in duplicate (Bacillus coagulans; 5% MSM, hour 12): 0 log
- Log Growth of Bacillus coagulans average (Bacillus coagulans; 5% MSM, hour 12): 0 log
- Log Growth of Bacillus coagulans average (Bacillus coagulans; 5% MSM, hour 15): 0.26 log
- Log Growth of Bacillus coagulans in duplicate (Bacillus coagulans; 5% MSM, hour 24): 0 log
- Log Growth of Bacillus coagulans average (Bacillus coagulans; 5% MSM, hour 24): 0 log
- Log Growth of Bacillus coagulans in duplicate (Bacillus coagulans; 5% MSM, hour 48): 0 log
- Log Growth of Bacillus coagulans average (Bacillus coagulans; 5% MSM, hour 48): 0 log
- Log Growth of Bacillus coagulans in duplicate (Bacillus coagulans; […] MSM, hour 0): 0 log
- Log Growth of Bacillus coagulans in duplicate (Bacillus coagulans; […] MSM, hour 3): 0 log
- Log Growth of Bacillus coagulans in duplicate (Bacillus coagulans; […] MSM, hour 9): 0 log
- Log Growth of Bacillus coagulans average (Bacillus coagulans; […] MSM, hour 9): 0 log
- Log Growth of Bacillus coagulans in duplicate (Bacillus coagulans; […] MSM, hour 12): 0 log
- Log Growth of Bacillus coagulans in duplicate (Bacillus coagulans; […] MSM, hour 15): 0 log
- Log Growth of Bacillus coagulans average (Bacillus coagulans; […] MSM, hour 15): 0 log
- Log Growth of Bacillus coagulans in duplicate (Bacillus coagulans; […] MSM, hour 24): 0 log
- Log Growth of Bacillus coagulans average (Bacillus coagulans; […] MSM, hour 24): 0 log
- Log Growth of Bacillus coagulans in duplicate (Bacillus coagulans; […] MSM, hour 48): 0 log
- Log Growth of Bacillus coagulans average (Bacillus coagulans; […] MSM, hour 48): 0 log
